Laboratory results reported in the supplement of paper PMC10331698.
± gives the standard deviation of the averaged measurements.

Legend:
Assay in all cases: level (log10 ratio to DMSO vehicle control); higher = higher biomarker level / cell amount than vehicle control
Settings in all cases: in DMSO
Heptafluorobutyl iodide = compound: FC(F)(F)C(F)(F)C(F)(F)CI [Heptafluorobutyl iodide]
Method: (§1)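 BioMAP Diversity Plus panel of 12 human primary cell co-culture systems (3C, 4H, LPS, SAg, BT, BF4T, BE3C, CASM3C, HDF3CGF, KF3CT, MyoF, Mphg). Compounds were added 1 h before stimulation and left for 24 h (MyoF 48 h; BT 72 h for soluble read-outs or 6 d for IgG). Biomarkers were read by ELISA, cytotoxicity by SRB, PBMC viability and proliferation by Alamar Blue. Each well value was divided by the mean of 8 DMSO control wells on the same plate and log10 transformed; duplicate blinded samples were tested at 4 concentrations.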

[1] = compound: O=S(=O)(Cl)C(F)(F)C(F)(F)C(F)(F)C(F)(F)C(F)(F)C(F)(F)C(F)(F)C(F)(F)F [Perfluoro-1-octanesulfonyl chloride]
Method: as §1

[2] = compound: O=C(O)C(F)(F)C(F)(F)C(F)(F)C(F)(F)C(F)(F)C(F)(F)C(F)(F)C(F)(F)C(F)(F)C(F)F [11-H-Perfluoroundecanoic acid]
Method: as §1

[3] = compound: FC(F)(F)C(F)(F)CNCC(F)(F)C(F)(F)F [Bis(1H,1H-perfluoropropyl)amine]
Method: as §1

[4] = compound: NS(=O)(=O)C(F)(F)C(F)(F)C(F)(F)C(F)(F)C(F)(F)C(F)(F)F [Perfluorohexanesulfonamide]
Method: as §1

Test System	level (log10) (Heptafluorobutyl iodide; 6700 nM)	level (log10) (Heptafluorobutyl iodide; 20000 nM)	level (log10) (Heptafluorobutyl iodide; 60000 nM)	level (log10) ([1]; 6700 nM)	level (log10) ([1]; 20000 nM)	level (log10) ([1]; 60000 nM)	level (log10) ([2]; 6700 nM)	level (log10) ([2]; 20000 nM)	level (log10) ([3]; 6700 nM)	level (log10) ([3]; 20000 nM)	level (log10) ([3]; 60000 nM)	level (log10) ([4]; 6700 nM)	level (log10) ([4]; 20000 nM)	level (log10) ([4]; 60000 nM)
lMphg:sIL-10	-0.0135 ± 0.036	0.0085 ± 0.013	-0.03 ± 0.078	0.0345 ± 0.054	-0.071 ± 0.1	-0.341 ± 0.033	-0.0875 ± 0.026	-0.0855 ± 0.0064	-0.0755 ± 0.028	0.037 ± 0.024	-0.059 ± 0.034	0 ± 0.0071	-0.142 ± 0.017	-0.5835 ± 0.00071
MyoF:CD106/VCAM-1	-0.003 ± 0.0085	-0.018 ± 0.0071	-0.0055 ± 0.00071	-0.0025 ± 0.0064	0.0025 ± 0.025	-0.0195 ± 0.0092	0.0035 ± 0.0078	-0.152 ± 0.02	0.0045 ± 0.0078	0.0065 ± 0.005	0.0095 ± 0.0021	-0.0105 ± 0.021	-0.0165 ± 0.0021	-0.0655 ± 0.0078
lMphg:CCL2/MCP-1	0.0255 ± 0.00071	-0.006 ± 0.0028	0.0135 ± 0.0021	0.0175 ± 0.0092	0.0255 ± 0.0092	0.032 ± 0.0028	-0.0145 ± 0.025	0.0085 ± 0.028	0.0015 ± 0.0035	0.001 ± 0.013	-0.02 ± 0.042	-0.018 ± 0.054	-0.053 ± 0.017	-0.123 ± 0.054
HDF3CGF:M-CSF	-0.0665 ± 0.063	-0.065 ± 0.023	-0.07 ± 0.027	-0.0065 ± 0.016	0.0245 ± 0.021	0.0195 ± 0.011	-0.0345 ± 0.005	-0.108 ± 0.029	-0.0125 ± 0.025	-0.018 ± 0.031	-0.029 ± 0.069	0.0285 ± 0.037	0.0395 ± 0.035	-0.065 ± 0.038
3C:CCL2/MCP-1	0.014 ± 0.051	-0.014 ± 0.041	0.007 ± 0.037	-0.009 ± 0.0085	-0.0025 ± 0.0092	0.017 ± 0.0014	-0.0085 ± 0.0035	0 ± 0.017	0.004 ± 0.031	-0.0225 ± 0.012	0.006 ± 0.016	0.0075 ± 0.0021	0.001 ± 0.014	-0.0255 ± 0.032
HDF3CGF:Collagen III	-0.043 ± 0.12	-0.051 ± 0.018	-0.0075 ± 0.11	0.0055 ± 0.021	0.0365 ± 0.015	-0.008 ± 0.062	-0.172 ± 0.033	-0.294 ± 0.03	-0.002 ± 0.018	-0.002 ± 0.0042	0.0325 ± 0.036	0.0055 ± 0.022	0.0305 ± 0.011	-0.1 ± 0.018
CASM3C:CD142/Tissue Factor	0.0065 ± 0.0035	-0.0175 ± 0.0035	0.0095 ± 0.056	-0.0095 ± 0.04	-0.0455 ± 0.037	-0.0595 ± 0.032	-0.031 ± 0.0085	-0.0365 ± 0.012	-0.0175 ± 0.0021	-0.0085 ± 0.054	-0.0095 ± 0.046	-0.0145 ± 0.023	-0.0275 ± 0.012	0.0175 ± 0.018
CASM3C:PAI-I	-0.009 ± 0.0085	-0.0035 ± 0.005	-0.011 ± 0.0057	-0.003 ± 0.0028	-0.0095 ± 0.00071	0.0005 ± 0.011	0.001 ± 0.0057	0.006 ± 0.0028	-0.0075 ± 0.0078	-0.009 ± 0.0042	0.005 ± 0.025	-0.0045 ± 0.011	-0.008 ± 0.0042	0.004 ± 0.0071
MyoF:SRB	0.002 ± 0.0028	-0.0015 ± 0.0021	0.0075 ± 0.011	0.005 ± 0.014	-0.009	-0.0695 ± 0.0092	-0.001 ± 0.0014	-0.086 ± 0.0028	0 ± 0.0057	-0.011 ± 0.0057	-0.011 ± 0.0042	-0.0185 ± 0.0035	-0.054 ± 0.033	-0.105 ± 0.0092
lMphg:CCL3/MIP-1alpha	0.023 ± 0.079	0.0315 ± 0.11	0.06 ± 0.045	0.038 ± 0.03	0.004 ± 0.041	0.025 ± 0.018	-0.023 ± 0.023	-0.027 ± 0.0057	0.039 ± 0.016	0.002 ± 0.014	-0.009 ± 0.0085	-0.0025 ± 0.00071	-0.034 ± 0.044	-0.0145 ± 0.0092
MyoF:CXCL8/IL-8	-0.0205 ± 0.0035	-0.0475 ± 0.0092	-0.0395 ± 0.011	-0.005 ± 0.016	0.0115 ± 0.005	0.138 ± 0.0042	-0.0375 ± 0.03	-0.071 ± 0.028	-0.024 ± 0.0028	-0.003 ± 0.018	0.019 ± 0.033	0.046 ± 0.068	0.024 ± 0.067	0.0085 ± 0.015
